We go through one molecule from publication PMC11920416 (Nature Communications, 2025).

The structures appear in SMILES notation.

The assay addresses T1, porcine ficolin 2 (FCN2) (Sus scrofa, UniProt Q29041).
T1 sequence (Q29041 27-323): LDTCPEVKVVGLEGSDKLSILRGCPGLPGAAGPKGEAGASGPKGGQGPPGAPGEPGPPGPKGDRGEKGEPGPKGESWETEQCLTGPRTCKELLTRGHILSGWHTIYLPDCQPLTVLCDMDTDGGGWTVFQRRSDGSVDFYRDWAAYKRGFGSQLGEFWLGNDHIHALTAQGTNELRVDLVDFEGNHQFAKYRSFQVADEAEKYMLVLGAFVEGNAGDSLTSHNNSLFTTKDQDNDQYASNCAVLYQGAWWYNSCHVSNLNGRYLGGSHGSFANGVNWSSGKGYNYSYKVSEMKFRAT
Format: biochemical. Particulars: 60% (v/v) pig serum, 37 °C, 20 min; PMOXA-coated NPs; S2 site, competitive.

Take `CC(=O)N[C@H]1C(O)O[C@H](CO)[C@@H](O)[C@@H]1O` (stereo partly shown) [GlcNAc]: the IC50 is 67 mM.
